Drawing on ChEMBL document CHEMBL2331421, “Amino acid derived quinazolines as Rock/PKA inhibitors” (Bioorg Med Chem Lett, 2013), this text covers IC50, inhibition and half-life for 3 compounds.

As usually defined, the IC50 is the point on the concentration scale where inhibition reaches its midpoint. As a reminder, the inhibition is the change of the read-out against control, counted positive when it falls. The term half-life denotes the time in which the quantity being followed falls by half.

The target of data set [1] is Serine/threonine-protein kinase MRCK alpha (Homo sapiens, UniProt Q5VT25). Put plainly: Inhibition of MRCKalpha (unknown origin).
Data set [2] concerns the target Mitogen-activated protein kinase 14 (Homo sapiens, UniProt Q16539). Description: Inhibition of p38alpha (unknown origin).
Data set [3] concerns the target Mitogen-activated protein kinase 9 (Homo sapiens, UniProt P45984). Description: Inhibition of JNK2 (unknown origin).
Data set [4] has as its target Mitogen-activated protein kinase 10 (Homo sapiens, UniProt P53779). Description: Inhibition of JNK3 (unknown origin).
The target of data set [5] is Mitogen-activated protein kinase 8 (Homo sapiens, UniProt P45983). Description: Inhibition of JNK1 (unknown origin).
Another data set has as its target CYP3A4 (Homo sapiens, UniProt P08684). Put plainly: Inhibition of CYP3A4 (unknown origin) at 10 uM relative to control. In kind it is ADME.
For another data set, the target named is CYP2C9 (Homo sapiens, UniProt P11712). Description: Inhibition of CYP2C9 (unknown origin) at 10 uM relative to control. In kind it is ADME.
In the next data set the target is CYP2D6 (Homo sapiens, UniProt P10635). Put plainly: Inhibition of CYP2D6 (unknown origin) at 10 uM relative to control. In kind it is ADME.
The target of a further data set is T1, CYP1A2 (Homo sapiens, UniProt P05177).
T1 sequence (P05177 whole entry): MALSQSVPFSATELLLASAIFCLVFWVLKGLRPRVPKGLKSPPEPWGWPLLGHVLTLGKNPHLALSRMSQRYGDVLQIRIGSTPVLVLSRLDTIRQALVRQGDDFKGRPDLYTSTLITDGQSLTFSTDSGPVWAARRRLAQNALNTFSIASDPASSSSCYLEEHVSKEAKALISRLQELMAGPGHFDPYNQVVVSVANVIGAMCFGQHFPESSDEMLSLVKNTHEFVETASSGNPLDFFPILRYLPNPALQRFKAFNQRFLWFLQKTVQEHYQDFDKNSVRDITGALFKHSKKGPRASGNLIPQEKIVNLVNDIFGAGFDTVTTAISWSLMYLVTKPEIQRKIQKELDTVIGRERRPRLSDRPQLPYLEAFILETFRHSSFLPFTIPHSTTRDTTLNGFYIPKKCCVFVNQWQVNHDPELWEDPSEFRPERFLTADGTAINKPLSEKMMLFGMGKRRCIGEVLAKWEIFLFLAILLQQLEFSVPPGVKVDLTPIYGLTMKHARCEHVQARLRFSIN
Put plainly: Inhibition of CYP1A2 (unknown origin) at 10 uM relative to control. In kind it is ADME.

The nature of data set [6]: Half life in human liver microsomes. In kind it is ADME, Microsome.
Data set [7] can be described thus: Inhibition of ROCK in rat A7r5 cells assessed as inhibition of myosin light chain bisphosphorylation by Western blot analysis. In kind it is cell-based. (In general: In western blotting, separated proteins are transferred to a membrane and probed.)
The target of data set [8] is Rho-associated protein kinase 1 (Homo sapiens, UniProt Q13464). Put plainly: Inhibition of ROCK1 (unknown origin).
The nature of data set [9]: Inhibition of PKA (unknown origin). Also noted: species or system Homo sapiens.
Data set [10] concerns the target Rho-associated protein kinase 2 (Homo sapiens, UniProt O75116). Description: Inhibition of human recombinant 6-His-tagged ROCK2 expressed in baculovirus-infected Sf9 cells using LCB-AKRRRLSSLRA-NH2 as substrate after 25 mins by TR-FRET assay. (In general: TR-FRET usually uses a lanthanide donor and a delayed reading to cut background.)

Sequence of Mitogen-activated protein kinase 14 (Q16539 whole entry): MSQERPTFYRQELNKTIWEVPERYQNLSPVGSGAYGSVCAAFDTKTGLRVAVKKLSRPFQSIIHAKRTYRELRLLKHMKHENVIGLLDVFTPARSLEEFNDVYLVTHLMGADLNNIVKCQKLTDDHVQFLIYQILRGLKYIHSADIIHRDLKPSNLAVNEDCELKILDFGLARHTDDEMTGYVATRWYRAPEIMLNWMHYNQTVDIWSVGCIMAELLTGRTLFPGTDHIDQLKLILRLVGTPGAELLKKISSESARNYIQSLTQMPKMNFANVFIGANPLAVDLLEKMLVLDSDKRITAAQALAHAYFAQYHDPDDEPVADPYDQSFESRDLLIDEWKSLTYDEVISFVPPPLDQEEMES
Sequence of Mitogen-activated protein kinase 10 (P53779 whole entry): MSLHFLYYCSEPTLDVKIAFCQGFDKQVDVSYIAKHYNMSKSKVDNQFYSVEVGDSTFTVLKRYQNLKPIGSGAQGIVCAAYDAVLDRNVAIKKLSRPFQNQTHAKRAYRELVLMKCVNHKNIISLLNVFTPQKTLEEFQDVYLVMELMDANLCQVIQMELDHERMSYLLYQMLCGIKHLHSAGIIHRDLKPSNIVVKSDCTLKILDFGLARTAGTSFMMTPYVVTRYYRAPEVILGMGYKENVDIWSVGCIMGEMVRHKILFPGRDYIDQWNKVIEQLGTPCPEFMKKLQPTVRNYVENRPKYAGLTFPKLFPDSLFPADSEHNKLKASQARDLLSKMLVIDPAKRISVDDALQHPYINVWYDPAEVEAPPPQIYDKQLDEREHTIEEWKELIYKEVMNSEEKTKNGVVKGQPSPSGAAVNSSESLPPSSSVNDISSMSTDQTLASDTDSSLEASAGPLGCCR
Sequence of Rho-associated protein kinase 2 (O75116 whole entry): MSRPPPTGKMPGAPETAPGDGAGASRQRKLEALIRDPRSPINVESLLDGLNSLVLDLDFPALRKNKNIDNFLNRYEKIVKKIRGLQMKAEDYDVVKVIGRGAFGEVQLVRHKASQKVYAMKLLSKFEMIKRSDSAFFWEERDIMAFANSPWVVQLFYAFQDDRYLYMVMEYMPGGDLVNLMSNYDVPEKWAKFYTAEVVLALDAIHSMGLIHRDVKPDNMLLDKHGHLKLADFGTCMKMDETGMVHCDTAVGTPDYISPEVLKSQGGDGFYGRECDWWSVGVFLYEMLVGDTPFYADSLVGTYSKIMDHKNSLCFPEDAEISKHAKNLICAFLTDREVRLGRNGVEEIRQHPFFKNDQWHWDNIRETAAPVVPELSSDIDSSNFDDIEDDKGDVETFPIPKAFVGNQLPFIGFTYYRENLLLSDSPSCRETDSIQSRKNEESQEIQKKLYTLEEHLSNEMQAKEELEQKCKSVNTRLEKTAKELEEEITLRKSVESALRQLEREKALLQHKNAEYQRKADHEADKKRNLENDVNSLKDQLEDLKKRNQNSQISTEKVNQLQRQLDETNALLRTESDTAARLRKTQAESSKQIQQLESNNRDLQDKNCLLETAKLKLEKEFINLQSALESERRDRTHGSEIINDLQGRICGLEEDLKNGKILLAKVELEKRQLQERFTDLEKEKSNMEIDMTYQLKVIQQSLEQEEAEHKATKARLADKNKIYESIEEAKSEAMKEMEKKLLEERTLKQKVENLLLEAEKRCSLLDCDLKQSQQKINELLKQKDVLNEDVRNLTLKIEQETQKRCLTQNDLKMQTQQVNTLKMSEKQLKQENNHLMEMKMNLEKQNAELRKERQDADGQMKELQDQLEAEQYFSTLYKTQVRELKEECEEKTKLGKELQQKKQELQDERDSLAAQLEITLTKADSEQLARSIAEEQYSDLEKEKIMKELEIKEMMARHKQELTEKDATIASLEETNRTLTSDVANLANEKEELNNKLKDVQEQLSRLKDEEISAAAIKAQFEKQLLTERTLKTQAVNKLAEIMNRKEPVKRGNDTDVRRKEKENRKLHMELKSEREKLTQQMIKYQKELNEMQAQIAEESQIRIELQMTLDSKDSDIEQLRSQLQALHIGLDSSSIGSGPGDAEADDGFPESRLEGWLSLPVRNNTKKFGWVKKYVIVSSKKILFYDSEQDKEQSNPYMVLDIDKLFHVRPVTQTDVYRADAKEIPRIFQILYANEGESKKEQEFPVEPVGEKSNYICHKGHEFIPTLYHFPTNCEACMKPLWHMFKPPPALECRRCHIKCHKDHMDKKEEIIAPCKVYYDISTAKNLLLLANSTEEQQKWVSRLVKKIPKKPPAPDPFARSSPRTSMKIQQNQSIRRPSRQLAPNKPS
Sequence of CYP2C9 (P11712 whole entry): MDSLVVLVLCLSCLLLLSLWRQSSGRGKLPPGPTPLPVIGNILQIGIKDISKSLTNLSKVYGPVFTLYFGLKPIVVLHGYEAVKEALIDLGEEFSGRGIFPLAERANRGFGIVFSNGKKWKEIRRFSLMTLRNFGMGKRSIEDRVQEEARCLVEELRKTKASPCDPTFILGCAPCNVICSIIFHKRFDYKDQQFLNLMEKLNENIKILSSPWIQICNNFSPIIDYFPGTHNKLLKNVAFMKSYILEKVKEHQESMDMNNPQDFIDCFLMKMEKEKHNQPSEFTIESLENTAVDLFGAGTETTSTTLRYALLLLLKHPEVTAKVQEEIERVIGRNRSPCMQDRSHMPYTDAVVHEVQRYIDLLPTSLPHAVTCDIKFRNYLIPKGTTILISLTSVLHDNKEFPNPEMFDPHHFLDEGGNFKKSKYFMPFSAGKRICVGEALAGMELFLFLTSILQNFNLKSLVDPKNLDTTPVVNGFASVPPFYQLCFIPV
Sequence of Mitogen-activated protein kinase 9 (P45984 whole entry): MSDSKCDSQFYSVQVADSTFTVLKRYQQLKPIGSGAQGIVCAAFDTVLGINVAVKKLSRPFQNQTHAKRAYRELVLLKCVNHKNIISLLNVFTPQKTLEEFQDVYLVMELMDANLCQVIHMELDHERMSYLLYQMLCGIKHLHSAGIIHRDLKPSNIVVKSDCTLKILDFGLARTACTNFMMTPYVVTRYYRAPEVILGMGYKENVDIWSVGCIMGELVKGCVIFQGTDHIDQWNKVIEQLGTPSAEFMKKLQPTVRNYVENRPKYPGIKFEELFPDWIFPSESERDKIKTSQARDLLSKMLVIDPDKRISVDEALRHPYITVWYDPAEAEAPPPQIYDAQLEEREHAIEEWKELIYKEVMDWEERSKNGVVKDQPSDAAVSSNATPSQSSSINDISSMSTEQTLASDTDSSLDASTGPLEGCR
Sequence of Mitogen-activated protein kinase 8 (P45983 whole entry): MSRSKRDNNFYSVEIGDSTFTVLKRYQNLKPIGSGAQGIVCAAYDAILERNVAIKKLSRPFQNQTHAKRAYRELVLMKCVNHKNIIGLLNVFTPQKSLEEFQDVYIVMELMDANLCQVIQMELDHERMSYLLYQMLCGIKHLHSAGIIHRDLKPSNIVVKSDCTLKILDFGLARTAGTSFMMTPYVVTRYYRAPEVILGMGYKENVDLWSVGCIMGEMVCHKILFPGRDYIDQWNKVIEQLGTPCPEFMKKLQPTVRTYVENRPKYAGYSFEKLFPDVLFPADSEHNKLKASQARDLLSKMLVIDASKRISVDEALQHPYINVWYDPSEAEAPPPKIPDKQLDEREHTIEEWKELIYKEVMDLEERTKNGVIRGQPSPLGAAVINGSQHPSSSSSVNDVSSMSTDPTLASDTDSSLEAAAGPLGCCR
Sequence of CYP2D6 (P10635 whole entry): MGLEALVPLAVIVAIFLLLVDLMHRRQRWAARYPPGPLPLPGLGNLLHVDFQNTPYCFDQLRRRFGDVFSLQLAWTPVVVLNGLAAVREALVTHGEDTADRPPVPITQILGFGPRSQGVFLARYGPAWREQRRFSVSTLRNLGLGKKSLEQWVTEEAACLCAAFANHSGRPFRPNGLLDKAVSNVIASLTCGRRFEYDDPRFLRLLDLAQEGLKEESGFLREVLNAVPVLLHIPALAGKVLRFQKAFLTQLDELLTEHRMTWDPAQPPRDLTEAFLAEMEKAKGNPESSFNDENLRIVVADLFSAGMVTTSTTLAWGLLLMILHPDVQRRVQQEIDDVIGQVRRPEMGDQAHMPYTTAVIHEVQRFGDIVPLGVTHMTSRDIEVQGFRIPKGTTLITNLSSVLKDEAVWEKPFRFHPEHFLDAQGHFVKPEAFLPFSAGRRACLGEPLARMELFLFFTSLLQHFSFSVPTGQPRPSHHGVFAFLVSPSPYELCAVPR
Sequence of CYP3A4 (P08684 whole entry): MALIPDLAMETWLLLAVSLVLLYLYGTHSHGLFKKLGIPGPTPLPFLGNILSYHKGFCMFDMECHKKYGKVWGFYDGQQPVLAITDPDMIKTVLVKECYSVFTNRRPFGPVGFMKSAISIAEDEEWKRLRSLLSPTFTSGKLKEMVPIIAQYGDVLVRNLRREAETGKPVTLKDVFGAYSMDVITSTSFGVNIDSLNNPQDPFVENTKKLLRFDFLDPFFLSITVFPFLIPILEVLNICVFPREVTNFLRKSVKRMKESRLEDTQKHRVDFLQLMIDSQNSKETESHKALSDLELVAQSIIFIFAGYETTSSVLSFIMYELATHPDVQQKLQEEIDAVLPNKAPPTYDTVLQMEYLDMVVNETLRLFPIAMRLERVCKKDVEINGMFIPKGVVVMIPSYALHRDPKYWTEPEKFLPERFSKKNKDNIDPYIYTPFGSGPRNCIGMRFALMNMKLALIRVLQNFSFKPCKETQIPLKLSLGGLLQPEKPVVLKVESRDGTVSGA

On to `O=c1[nH]c([C@@H]2CNC[C@H]2c2ccc(Cl)cc2)nc2ccc(-c3cn[nH]c3)cc12`, for which the half-inhibitory concentration (IC50) in data set [1] was greater than 1000 nM; in data set [2], greater than 1000 nM; in data set [3] it was greater than 1000 nM; in data set [4], greater than 1000 nM; in data set [5] it was greater than 1000 nM; in [7] it was 23 nM. For the same compound, the half-maximal inhibitory concentration (IC50) in [8] was 1 nM; in data set [9], 2 nM; in [10] it was less than 1 nM. In addition, the inhibition at 10 µM at CYP3A4 came out at 30%; against CYP2C9, 34%; on CYP2D6, 75%; on CYP1A2, 65%. The half-life in data set [6] was 75 min.
For the compound `COc1ccc([C@@H]2CN(C)C[C@H]2c2nc3ccc(-c4cn[nH]c4)cc3c(=O)[nH]2)cc1`, the IC50 in [1] is greater than 1000 nM; in data set [2], greater than 1000 nM; in data set [3], greater than 1000 nM; in data set [4], greater than 1000 nM; in data set [5] it was greater than 1000 nM; in data set [7], 30 nM. Moreover, the half-inhibitory concentration (IC50) in data set [8] was 13 nM; in data set [9], 26 nM; in [10] it was 5 nM. Moreover, the inhibition at 10 µM against CYP3A4 is -3%; on CYP2C9 it was 55%; against CYP2D6, 66%; against CYP1A2 it was 0%. The same compound had a half-life in data set [6] of 21 min.
For `O=c1[nH]c([C@@H]2CNC[C@H]2c2ccccc2)nc2ccc(-c3cn[nH]c3)cc12`, the 50% inhibitory concentration (IC50) is greater than 1000 nM in [1]; greater than 1000 nM in data set [2]; greater than 1000 nM in data set [3]; greater than 1000 nM in data set [4]; greater than 1000 nM in data set [5]; 312 nM in data set [7]. Also, the IC50 in [8] is 2 nM; in data set [9], 4 nM; in [10], 1 nM. Also, the inhibition at 10 µM was determined as 19% against CYP3A4, 5% at CYP2C9, 72% at CYP2D6 and 19% against CYP1A2. In addition, the half-life in [6] came to 35 min.
